Reference: patent US8980899B2, “Methods of inhibiting Ire1” (The Regents of the University of California, priority 2009, dated 2015)

What was measured:
[1] = tested on: Ire1 (XBP-1 YFP reporter in IMR90 cells); assay: Cell-based IRE1 inhibition assay with human fibroblasts (IMR90), XBP-1 YFP reporter; details: compound 2 uM, 8 hrs
Description: FIG. 6 depicts histogram results of cell-based Ire1 inhibition assay employing IMR90 human diploid fibroblastic cell line. […] Induction of XBP-1 YFP reporter was assayed by fluorescence microscopy. See Example 6. Test compounds (left to right): DMSO; Tg; bortezomib; MG132; Irestatin; AD71c; AD73c; AD58; AD59. Ordinate: relative fluorescence (proportional to Ire1 activity.)
A cell-based assay of Ire1 inhibition was conducted on human diploid fibroblastic cells (IMR90) expressing an XBP-1 YFP (yellow fluorescent protein) reporter. The effect of test compound or control on UPR induction was assayed by fluorescence microscopy to measure the fluorescence of YFP expressed in a Ire1-dependent manner. The XBP1-YFP reporter only produces YFP after a frameshift produced by splicing of its intron by activated IRE1. As known in the art, higher fluorescence intensity means higher Ire1 and UPR activity. Conversely, lower fluorescence intensity means inhibitions of Ire1 and UPR.
IMR90 stable retroviral transductants expressing an XBP-1 YTP reporter were plated in a 96 well clear bottom plate and allowed to recover overnight (80% confluency). […] Induction of the XBP1-YFP reported was assayed by fluorescence microscopy (GE Healthcare IN Cell Analyzer 2000). The number of YFP cells and the total number of cells, as judged by nuclear staining (Hoechst) were counted in each well. […]

hIre1 = hIre1 (Homo sapiens, UniProt O75460); assay: Titrations of Ire1 inhibitors to measure Ki using 1 μM hIre1; type: biochemical; details: 1 μM hIre1, 5′-32p-HP21, 30° C.
hIre1, sequence (O75460 19-977): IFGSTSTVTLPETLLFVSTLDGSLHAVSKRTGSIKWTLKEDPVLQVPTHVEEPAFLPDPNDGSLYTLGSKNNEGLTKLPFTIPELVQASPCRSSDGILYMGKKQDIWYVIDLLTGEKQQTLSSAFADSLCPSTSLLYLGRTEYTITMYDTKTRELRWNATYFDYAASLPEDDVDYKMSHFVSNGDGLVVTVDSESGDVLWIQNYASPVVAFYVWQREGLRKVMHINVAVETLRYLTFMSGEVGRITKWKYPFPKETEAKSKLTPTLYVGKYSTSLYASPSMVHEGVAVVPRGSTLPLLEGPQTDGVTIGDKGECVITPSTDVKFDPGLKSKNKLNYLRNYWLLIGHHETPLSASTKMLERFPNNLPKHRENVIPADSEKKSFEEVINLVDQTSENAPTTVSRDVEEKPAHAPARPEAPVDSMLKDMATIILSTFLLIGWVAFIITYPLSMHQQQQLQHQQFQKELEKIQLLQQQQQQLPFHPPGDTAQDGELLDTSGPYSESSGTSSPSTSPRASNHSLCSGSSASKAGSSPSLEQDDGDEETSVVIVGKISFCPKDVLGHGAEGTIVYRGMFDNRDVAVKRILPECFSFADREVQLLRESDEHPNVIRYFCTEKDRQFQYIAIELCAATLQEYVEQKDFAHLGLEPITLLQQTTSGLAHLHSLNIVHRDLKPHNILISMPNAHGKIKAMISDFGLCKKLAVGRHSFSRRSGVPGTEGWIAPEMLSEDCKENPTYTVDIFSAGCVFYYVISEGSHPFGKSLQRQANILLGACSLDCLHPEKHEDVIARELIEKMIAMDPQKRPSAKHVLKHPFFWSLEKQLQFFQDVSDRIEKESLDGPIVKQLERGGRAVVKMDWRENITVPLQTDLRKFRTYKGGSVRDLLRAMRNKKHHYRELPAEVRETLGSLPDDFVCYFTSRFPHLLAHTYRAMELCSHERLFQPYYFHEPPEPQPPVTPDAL
Description: Recombinant human Ire1-alpha (1 μM f/c) was mixed with reaction buffer, inhibitor solution in DMSO, and ^32P-labeled RNA substrate having sequence 5′-UGCACCUCUGCAGCAGGUGCA (SEQ ID NO:1). Reactions were conducted at 30° C. and initiated by adding the RNA to reaction pre-mix containing all the components minus the RNA. The final reaction contained: 20 mM HEPES pH 7, 70 mM NaCl, 2 mM MgCl2, 5% glycerol, 4 mM DTT, 10% DMSO, 1 μM Ire1 and <1 nM 32P-labeled RNA. (The reaction mixture may be modified by using different components or concentrations, different RNA substrate, or different Ire1 protein construct.)
At time intervals (0 seconds, ˜10 seconds, ˜30 seconds, and ˜3 minutes), 1 μl aliquots of reaction mixture were taken and quenched in 10 M Urea, 0.1% SDS. Samples were analyzed by denaturing polyacrylamide gel electrophoresis and quantified using Typhoon phosphorImager.
Inhibition was measured by the extent of RNA cleavage slowdown in the presence of inhibitor (0.3-100 μM) compared to reaction containing no inhibitors.

[2] = molecular target: Recombinant human Ire1-alpha (Homo sapiens, UniProt O75460); assay: In vitro inhibition assay, cleavage of 32P-stem-loop RNA by human Ire1; type: biochemical; details: in vitro cleavage of 32P-stem-loop RNA by human Ire1, AD series; Control (no inhibitor) 8.8310e−3
Recombinant human Ire1-alpha, sequence (O75460 19-977): as the sequence (O75460 19-977) above
Description: Recombinant human […]) was mixed with reaction buffer, inhibitor solution in DMSO, and ^32P-labeled RNA substrate having sequence 5'-[…] NO:1). Reactions were conducted at 30° C. and initiated by adding the RNA to reaction pre-mix containing all the components minus the RNA. […] (The reaction mixture may be modified by using different components or concentrations, different RNA substrate, or different Ire1 protein construct.) At time intervals (0 seconds, 10 seconds, 30 seconds, and 3 minutes), 1 μl aliquots of reaction mixture were taken and quenched in 10 M Urea, 0.1% SDS. Samples were analyzed by denaturing polyacrylamide gel electrophoresis and quantified using Typhoon phosphorImager. […] Reactions with Irestatin and exemplary compounds were conducted analogously. Irestatin was a gift obtained from the SPECS screen available as 5 mM solution in DMSO at UCSF small molecule discovery center.

yIre1 = molecular target: T1, yIre1 (Saccharomyces cerevisiae, UniProt P32361); assay: RNase cleavage assay (yIre1 activation); type: biochemical, yeast; details: yIre1 RNA cleavage, 30° C., 2 mM ADP; Control (no inhibitor) 0.000504
T1 sequence (P32361 19-1115): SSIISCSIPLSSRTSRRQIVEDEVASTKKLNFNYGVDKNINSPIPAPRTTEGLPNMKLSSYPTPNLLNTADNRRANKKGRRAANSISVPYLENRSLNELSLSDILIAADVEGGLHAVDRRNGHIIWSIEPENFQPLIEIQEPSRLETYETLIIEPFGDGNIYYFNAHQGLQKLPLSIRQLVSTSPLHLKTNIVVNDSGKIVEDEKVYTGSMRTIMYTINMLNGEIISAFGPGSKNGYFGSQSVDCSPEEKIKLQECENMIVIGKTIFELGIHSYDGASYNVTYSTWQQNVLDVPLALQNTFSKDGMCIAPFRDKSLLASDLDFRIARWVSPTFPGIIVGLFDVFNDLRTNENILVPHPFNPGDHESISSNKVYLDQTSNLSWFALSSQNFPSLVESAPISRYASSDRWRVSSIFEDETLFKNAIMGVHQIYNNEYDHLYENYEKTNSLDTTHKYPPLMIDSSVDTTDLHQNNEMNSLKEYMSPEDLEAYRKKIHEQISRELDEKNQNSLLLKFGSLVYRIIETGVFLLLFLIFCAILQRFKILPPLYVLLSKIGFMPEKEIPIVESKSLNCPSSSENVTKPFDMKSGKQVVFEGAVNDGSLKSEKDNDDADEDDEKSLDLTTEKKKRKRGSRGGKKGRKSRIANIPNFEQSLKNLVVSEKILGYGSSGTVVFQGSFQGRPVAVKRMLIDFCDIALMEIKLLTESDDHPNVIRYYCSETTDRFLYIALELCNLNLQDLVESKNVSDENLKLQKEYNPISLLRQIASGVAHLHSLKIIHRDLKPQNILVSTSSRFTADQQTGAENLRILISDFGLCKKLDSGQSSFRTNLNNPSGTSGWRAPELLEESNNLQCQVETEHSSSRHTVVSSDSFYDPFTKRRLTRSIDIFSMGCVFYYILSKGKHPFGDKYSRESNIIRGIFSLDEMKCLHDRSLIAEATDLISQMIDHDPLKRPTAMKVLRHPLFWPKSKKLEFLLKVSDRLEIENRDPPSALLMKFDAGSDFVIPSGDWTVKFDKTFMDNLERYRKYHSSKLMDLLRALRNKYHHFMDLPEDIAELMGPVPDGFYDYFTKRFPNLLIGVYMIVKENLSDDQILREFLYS
Description: RNA cleavage reactions were conducted at 30° C. in buffer containing 20 mM HEPES (pH 7.5), 70 mM NaCl, 2 mM ADP (pH 7.0), 2 mM Mg(OAc)2, 5 mM DTT, 5% glycerol, less than 1 nM ^32p-labeled RNA substrate, and 3 nM-[…] Ire1. Reaction solutions and buffers were designed using Biochem Lab Solutions 3.5. Reactions were prepared such that 1 μl of RNA was added to 9 μl of pre-warmed reaction mixture containing all components except RNA. Typically, 3-10 minute time courses were collected starting from 5 seconds for the first time point. At time intervals, 1 μl of solution was withdrawn from each reaction and mixed with 6 μl stop solution containing 10 M urea, 0.1% SDS, 0.1 mM EDTA, 0.05% xylene cyanol, and 0.05% bromophenol blue. The samples were separated by a denaturing 10% PAGE and exposed on a phosphor storage screen. The screens were scanned on a Storm or a Typhoon instrument and quantified using ImageQuant 5.0 or GelQuant.NET 1.4 programs. The data were plotted and fit in SigmaPlot 6.0.

[3] = tested on: Ire1 (XBP-1 luciferase reporter in MEFS); assay: Cell-based IRE1 inhibition assay with mouse embryonic fibroblasts, XBP-1 luciferase reporter; details: compound 5 uM, 8 hrs
Description: FIG. 5 depicts histogram results of cell-based Ire1 inhibition assay in mouse embryonic fibroblasts (MEFS). Primary MEFS isolated from a transgenic mouse expressing an XBP1 luciferase reporter were incubated with either thapsigargin (Tg) or tunicamycin (Tm) in the absence or presence of test compound or control. See Example 5. Treatment order in histogram (left to right): no compound, AD73c at 5 uM, mitoxan (10 uM). Incubation conditions (left to right): DMSO, Tg (600 nM), Tm (2.6 ug/mL). Legend: RL: relative luminosity (arbitrary units); DMSO (no fill); Tg (diagonal stripe); Mitoxan (diamond fill).
A cell-based assay of Ire1 inhibition was conducted on mouse embryonic fibroblasts (MEFS) isolated from a transgenic mouse expressing an XBP-1 luciferase reporter (Riken Research, Japan). The XBP-1 luciferase reporter produces a frameshift and production of luciferase only after splicing of the intron by activated IRE1. […]
Primary MEFs expressing an XBP1 luciferase reporter were plated in a 96 well white plate and allowed to recover overnight (80% confluency). […] Luciferase activity was measured by the additional of 50 uL of One-Glo™ Luciferase Assay System (Promega), and the relative luminescence was quantitated using a luminometer (Analyst).
As depicted in the histogram of FIG. 5, the luminescence of luciferase expressed in Ire1-dependent assay was measured to assess Ire1 and UPR activity. […]

| SMILES | inhibition of UPR (XBP-1 YFP reporter) induced by Tg [1] | Ki (hIre1) [µM] | Ire1 activity [2] | Ire1 activity (yIre1) | rate suppression (hIre1) [fold] | inhibition of XBP1 luciferase induction by thapsigargin (Tg) ([3]; Tg 600 nM) | inhibition of XBP1 luciferase induction by tunicamycin (Tm) ([3]; Tm 2.5 ug/mL) |
| --- | --- | --- | --- | --- | --- | --- | --- |
| Cn1nc(-c2ccc(NC(=O)Nc3cccc(C(F)(F)F)c3)cc2)c2c(N)ncnc21 [AD59, 1-(4-(4-amino-1-methyl-1H-pyrazolo[3,4-d]pyrimidin-3-yl)phenyl)-3-(3-(trifluoromethyl)phenyl)urea] | even more strongly | ~1 | 3.0550e−3 | 0.0001 |  |  |  |
| Nc1ncnc2c1c(-c1ccc(NC(=O)Nc3cccc(C(F)(F)F)c3)cc1)nn2[C@@H]1CCN(C(=O)Nc2cccc(C(F)(F)F)c2)C1 [AD73c] |  |  | 2.9310e−4 |  | 100 | strongly inhibit | strongly inhibit |
| CC(C)n1nc(-c2ccc(NC(=O)Nc3ccccc3)cc2)c2c(N)ncnc21 [AD58] | inhibit UPR |  |  |  |  |  |  |
